Assays:
[1] = tested on: BCL-2 RT template (RNA, G4) UAAUACGACUCACUAUAGGGCAUGCCAAGGGGGAAACACCAGAAUCAAGUGUUCCGCGUGAUUGAAGACACCCCCUCGUCCAAGAAUGCAAAGCACAUCCAGGGGGCCGUGGGGUGGGAGCUGGGGAUAAAAUAGCUGGAUUAUAACUCCUCUUCUUUCUCUCGAGAGGUGCCGUUGGCCCCCGUUGCUUUUCCUCUGGGAAGGAUG; experiment: reverse transcriptase stop assay, qPCR; settings: MgCl2 (concentration not stated), 10 µM compound, 100 nM template, 37°C
[2] = tested on: NRAS RNA G-quadruplex (SPR) (RNA, G4) UGUGGGAGGGGCGGGUCUGGG; experiment: SPR; settings: 100 mM KCl; 10 mM HEPES pH 7.4, 25°C; highest OMT 200 µM
[3] = tested on: mut 3 (RNA, G4) GGAGGAGGGUGAGUAGG; experiment: SPR; settings: 100 mM KCl; 10 mM HEPES pH 7.4, 25°C; highest OMT 200 µM
[4] = tested on: BCL-2 RNA G-quadruplex (SPR) (RNA, G4) GGGGGCCGUGGGGUGGGAGCUGGGG; experiment: SPR; settings: 100 mM KCl; 10 mM HEPES pH 7.4, 25°C; highest OMT 200 µM
[5] = tested on: mut 1 (RNA, G4) GGAUGAGUGGGAGGAGG; experiment: SPR; settings: 100 mM KCl; 10 mM HEPES pH 7.4, 25°C; printed kd/ka gives 3.9e-3
[6] = tested on: mut 4 (RNA, G4) UGAGGAGGGGGAGGAUG; experiment: SPR; settings: 100 mM KCl; 10 mM HEPES pH 7.4, 25°C; highest OMT 200 µM
[7] = tested on: DNA double strand (DNA, duplex) GCGCGCGCGCGCGCGCGCGCGCGC; experiment: UV melting; settings: 100 mM KCl/NaCl (so in the source); 10 mM Tris pH 7.4
[8] = tested on: mut 2 (RNA, G4) UGAGGAGGGUGAGGAGG; experiment: SPR; settings: 100 mM KCl; 10 mM HEPES pH 7.4, 25°C; printed kd/ka gives 1.01e-2
[9] = tested on: RNA G-quadruplex (VEGF), unlabelled (RNA, G4) GGAGGAGGGGGAGGAGG; experiment: CD melting; settings: 100 mM KCl/NaCl (so in the source); 10 mM Tris pH 7.4; 3:1 OMT/G-quadruplex; 10 µM RNA; Tm 72.7 to 76.3
[10] = tested on: RNA G-quadruplex (VEGF), unlabelled (RNA, G4) GGAGGAGGGGGAGGAGG; experiment: ESI-MS; settings: 100 mM trimethylammonium acetate; 50% methanol; 10 µM RNA, 30 µM OMT

| ΔCt ([1]; not a binding constant) | binding [2] | binding [1] | binding [3] | binding [4] | KD [5] [µM] | binding [6] | binding [7] | KD [8] [µM] | ΔTm [9] [°C] | binding [10] | SMILES |
| --- | --- | --- | --- | --- | --- | --- | --- | --- | --- | --- | --- |
| > 2 | – | – | – | – | – | – | – | – | – | – | C[n+]1ccc(-c2c3nc(c(-c4cc[n+](C)cc4)c4ccc([nH]4)c(-c4cc[n+](C)cc4)c4nc(c(-c5cc[n+](C)cc5)c5ccc2[nH]5)C=C4)C=C3)cc1 |
| – | no | no | no | no | 39 | no | no | 101 | 3.6 | yes | O=C1CCC[C@@H]2[C@H]3CCC[N+]4([O-])CCC[C@@H](CN12)[C@@H]34 (some centres unmarked) |
